# Key:
# Format in all cases: cell-based
# [1] = tested on: purine receptor of the MDCK cell; experiment: ATP-dependent IP3 generation in MDCK cells visualized with the probe
# Protocol: FIG. 2 is visualization of ATP-dependent IP3 generation in MDCK cells using the probe of this invention. (a), 100 μM ATP; (b), […]; and (c), 1 μM ATP.
# (§1) cDNA encoding a probe for IP3 detection and quantification (FIG. 1) was prepared by a genetic engineering method, and introduced into MDCK cell. Expression of the probe in the cytoplasm was confirmed since fluorescence was observed from the cells with a fluorescence microscope.
# An increase in fluorescence intensity ratio (CFP/YFP) was observed by stimulating a purine receptor of the MDCK cell as obtained in Example 1 with 100 μM ATP (FIG. 2a).
# MDCK cell nucleus = experiment: IP3 generation in the MDCK cell nucleus with nuclear-localized probe; settings: 100 μM ATP stimulation, probe with nuclear localization sequence in nucleus, FIG. 4
# Source text: The probe was linked with the nuclear localization sequence of SEQ ID NO: 4 at the C terminal thereof, and expressed in MDCK cell.
# [2] = target: T1, probe for IP3 detection and quantification expressed in MDCK cell (Homo sapiens, UniProt Q14643); experiment: IP3 microinjection into MDCK cell expressing the FRET probe; settings: each introduction of a small amount of IP3 by microinjection
# T1 construct: a region from 224th amino acid to 579th amino acid of the type 1 IP3 receptor; expressed in transfected cells; host or cells: MDCK cells
# T1 sequence (Q14643 224-579): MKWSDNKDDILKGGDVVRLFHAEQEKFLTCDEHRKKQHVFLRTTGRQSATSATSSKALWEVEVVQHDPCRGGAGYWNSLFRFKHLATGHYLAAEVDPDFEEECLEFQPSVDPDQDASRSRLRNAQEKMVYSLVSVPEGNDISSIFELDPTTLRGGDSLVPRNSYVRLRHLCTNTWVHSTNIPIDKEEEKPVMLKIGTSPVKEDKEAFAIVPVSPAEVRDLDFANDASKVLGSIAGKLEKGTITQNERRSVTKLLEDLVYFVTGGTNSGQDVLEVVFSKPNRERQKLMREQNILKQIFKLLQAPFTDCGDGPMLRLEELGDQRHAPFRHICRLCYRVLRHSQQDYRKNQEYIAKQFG
# Protocol: as §1
# Into the MDCK cell expressing the probe as obtained in Example 1, IP3 was introduced by a microinjection method.
# [3] = tested on: neuron prepared from hippocampus of a rat embryo; experiment: IP3 kinetics in neuron expressing the probe on glutamate stimulation; settings: 20 μM glutamate stimulation, cell body and dendrites, FIG. 3
# Source text: The probe was expressed in a neuron prepared from hippocampus of a rat embryo, and IP3 kinetics in the neuron was observed.
smiles,measurement,setting,value
Nc1ncnc2c1ncn2[C@@H]1O[C@H](COP(=O)(O)OP(=O)(O)OP(=O)(O)O)[C@@H](O)[C@H]1O [ATP],response of the probe,"[1]; 1 μM ATP stimulation, FIG. 2c",a response of the probe was also observed depend on ATP concentration
same,response of the probe,"[1]; 10 μM ATP stimulation, FIG. 2b",a response of the probe was also observed depend on ATP concentration
same,fluorescence intensity ratio (CFP/YFP),"[1]; 100 μM ATP stimulation, FIG. 2a",increase
same,IP3 concentration,MDCK cell nucleus,temporally increased
"O=P(O)(O)O[C@@H]1[C@H](O)[C@H](O)[C@@H](OP(=O)(O)O)[C@H](OP(=O)(O)O)[C@H]1O [IP3, Inositol-1,4,5-trisphosphate]",CFP/YFP fluorescence intensity ratio,[2],stepwise increased and saturated soon
N[C@@H](CCC(=O)O)C(=O)O [glutamate],IP3 concentration,[3],temporally increased in not only the cell body but also the dendrites
